Source: US10208059B2, “Heterocyclic modulators of HIF activity for treatment of disease” (Board of Regents, University of Texas System, priority 2012, dated 2019)
Entries after “also recorded” stand apart in the source; their conditions may differ.

How the values were obtained:
[1] = system: H460 xenografts; experiment: H460 non-small cell lung cancer xenograft model; assay type: in vivo, mice
Method: H460 cells were implanted subcutaneously in CD-1 nude mice and treated with 150 mpk qdx14 PO of the compound of Example 2 delivered by oral gavage for 14 days. Animals were randomized into study groups and the study initiated when the average tumor volume was 400 mm^3. During treatment, tumor volume was measured three times per week to determine tumor growth over the course of the study (FIG. 6). Nine tumor bearing mice were included in each group. On day 15, 3 hours prior to take down, hypoxyprobe (Hypoxyprobe, Inc. cat # HP3) was injected into mice. Tumor sections were stained (dark areas) for the level of hypoxia utilizing an anti-hypoxyprobe antibody and standard IHC methods (FIG. 7). The same tumors were stained for the expression of HIF regulated gene carbonic anhydrase IX (CA9) using standard IHC methods (FIG. 8).

[2] = system: 293T-HRE-GFP-luc cells; experiment: Cell-based reporter assay for IC50 determinations; conditions: hypoxia 6 hrs (1% O2), luminescence, read-out: IC50 Classification
Procedure, shortened: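 Cells carrying an HRE-driven GFP-luciferase reporter, seeded at 12,000/well and held overnight, then given 1:3 serial compound dilutions (DMSO, further diluted 1:50 in medium). After 30 min in normoxia, plates held 6 h in hypoxia (1% O2, 37 °C); luciferase luminescence read, IC50 by four-parameter logistic fit.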

[3] = system: D423 cells; experiment: Glioblastoma cellular assay, cell numbers; assay type: cell-based; conditions: various concentrations
Text: (§1) NB-1, Gli56, and D423 cell lines are deleted for ENO-1 (GLI56 and D423) or PGD, which renders them with reduced glycolytic capacity (Muller, F. et al., Nature, 2012, 488, 337-42).

[4] = system: Gli56 cells; experiment: Glioblastoma cellular assay, cell numbers; assay type: cell-based; conditions: various concentrations
Text: as §1

[5] = system: NB-1 cells; experiment: Neuroblastoma cellular assay, cell numbers; assay type: cell-based; conditions: various concentrations
Text: as §1

[6] = system: OCI-AML3 cells; experiment: Acute myeloid leukemia cell viability; assay type: cell-based; conditions: various concentrations, 2 days, normalized to DMSO control
Method: (§2) The OCI-AML3 cell line was treated with various concentrations of compound for 2 days and the percent of viable cells normalized to control cells treated with DMSO (FIG. 9). OCI-AML3 cells constitutively expressing luciferase were tail vein injected in NSG nude mice. 17 days after cell injection, luciferin was injected into animals and luciferase signal was measured using an IVIS imaging system to determine tumor burden and for randomization of subjects into study groups. On day 18, animals began receiving daily oral doses of vehicle or 10 mpk of the compound of Example 80 which continued throughout the study. On day 28, imaging was performed again to determine tumor burden (FIG. 10).

[7] = system: NB-1 xenografts; experiment: NB-1 xenograft model; assay type: in vivo; conditions: daily oral 10 mg/kg (b1183 says 40 mpk), CD-1 nude mice
Method: To establish activity and provide in vivo proof of concept, NB-1 cells were implanted into CD-1 nude mice and treated with 40 mpk of the compound of Example 80 po or vehicle daily when tumors reached 400-500 mm^3. Tumor size was measured 3×/week using caliper measurements (FIG. 5).

[8] = system: TMD8 cells; experiment: Diffuse large B-cell lymphoma (DLBCL) assay, viable cells; assay type: cell-based; conditions: varying concentrations, 7 days, Guava ViaCount
Method: Diffuse Large B-Cell Lymphoma (DLBCL) Assay
Equal number of TMD8 cells were plated and treated with varying concentrations of the compound of Example 80 for 7 days. Percent of viable cells was determined using Guava ViaCount reagents (EMD Millipore cat #4000-0040) that contains proprietary dyes that enable the determination of the number of live and dead cells in a sample (FIG. 1).

[9] = system: OCI-AML3 models in NSG mice; experiment: Human leukemia model, OCI-AML3 in NSG mice; assay type: in vivo; conditions: 10 mg/kg daily oral
Method: as §2

In the case of `Cc1nc(-c2nc(-c3ccc(OC(F)(F)F)cc3)no2)nn1Cc1ccnc(N2CCN(C)CC2)c1` [Example 2, 5-(5-Methyl-1-((2-(4-methylpiperazin-1-yl)pyridin-4-yl)methyl)-1H-1,2,4-triazol-3-yl)-3-(4-(trifluoromethoxy)phenyl)-1,2,4-oxadiazole], the “tumor growth of H460 xenografts” value ([1]; 150 mg/kg daily oral for 14 days, CD-1 nude mice) is reported as “inhibited the growth; also recorded: reduces the tumor growth”, the “level of HIF regulated gene carbonic anhydrase IX (CAIX/CA9) in H460 xenografts (IHC)” value ([1]; 150 mg/kg daily oral, day 15) is reported as “elimination of hypoxia and CA9 protein expression; also recorded: reduce the level of CAIX” and the “level of hypoxia in H460 xenografts (hypoxyprobe IHC)” value ([1]; 150 mg/kg daily oral, day 15) is reported as “elimination of hypoxia; also recorded: reduce the level of hypoxia”. For the same compound, the IC50 [2] was less than 0.1 µM, the “number of viable D423 cells” value [3] was “significantly reduced; also recorded: reduced number of viable cells” and the “cell death in Gli56 cells” value [4] was “readily apparent”. The “number of viable Gli56 cells” value [4] was “significantly reduced”, the “cell death in NB-1 cells” value [5] was “readily apparent” and the “number of viable NB-1 cells” value [5] was “significantly reduced; also recorded: reduced number of viable cells”.

With `Cc1nc(-c2nc(-c3ccc(OC(F)(F)F)cc3)no2)nn1Cc1cccc(N2CCC(S(C)(=O)=O)CC2)c1` [Example 80, 4-Methanesulfonyl-1-{3-[(5-methyl-3-{3-[4-(trifluoromethoxy)phenyl]-1,2,4-oxadiazol-5-yl}-1H-1,2,4-triazol-1-yl)methyl]phenyl}piperidine] the “number of viable OCI-AML3 cells” value [6] was “reduced number of viable cells”, the IC50 [2] was less than 0.1 µM and the “tumor growth of NB-1 xenografts” value [7] was “reduces the tumor growth”. The “number of viable D423 cells” value [3] was “significantly reduced; also recorded: reduced number of viable cells”, the “cell death in Gli56 cells” value [4] was “readily apparent” and the “number of viable Gli56 cells” value [4] was “significantly reduced; also recorded: reduced number of viable cells”. The “number/percent of viable TMD8 cells” value [8] was “respond robustly; also recorded: reduced number of viable cells”, the “disease burden (tumor burden) by IVIS imaging” value [9] was “reduces disease burden” and the survival ([9]; relative to vehicle) was “significantly increased their survival; also recorded: extends survival”. For the same compound, the “cell death in NB-1 cells” value [5] was “readily apparent” and the “number of viable NB-1 cells” value [5] was “significantly reduced; also recorded: reduced number of viable cells”.

In the case of `Cc1nc(-c2ncc(-c3ccc(OC(F)(F)F)cc3)o2)nn1Cc1cccc(S(C)(=O)=O)c1` [Example 159, 1-[(3-methanesulfonylphenyl)methyl]-5-methyl-3-{5-[4-(trifluoromethoxy)phenyl]-1,3-oxazol-2-yl}-1H-1,2,4-triazole], the IC50 [2] is reported as 0.1 to 1 µM.

With `Cc1nc(-c2cc(-c3ccc(OC(F)(F)F)cc3)no2)nn1Cc1cccc(N2CCN(C)CC2)c1` [Example 160, 1-methyl-4-{3-[(5-methyl-3-{3-[4-(trifluoromethoxy)phenyl]-1,2-oxazol-5-yl}-1H-1,2,4-triazol-1-yl)methyl]phenyl}piperazine] the IC50 [2] was less than 0.1 µM.

In the case of `Cc1nc(-c2cc(-c3ccc(OC(F)(F)F)cc3)no2)nn1Cc1ccnc(N2CCN(C)CC2)c1` [Example 161, 1-methyl-4-{4-[(5-methyl-3-{3-[4-(trifluoromethoxy)phenyl]-1,2-oxazol-5-yl}-1H-1,2,4-triazol-1-yl)methyl]pyridin-2-yl}piperazine], the IC50 [2] is reported as less than 0.1 µM.

`Cc1nc(-c2cc(-c3ccc(OC(F)(F)F)cc3)on2)nn1Cc1cccc(N2CCN(C)CC2)c1` [Example 162, 1-methyl-4-{3-[(5-methyl-3-{5-[4-(trifluoromethoxy)phenyl]-1,2-oxazol-3-yl}-1H-1,2,4-triazol-1-yl)methyl]phenyl}piperazine] was tested, and the IC50 [2] was less than 0.1 µM.

Work on `Cc1nc(-c2cc(-c3ccc(OC(F)(F)F)cc3)on2)nn1Cc1ccnc(N2CCN(C)CC2)c1` [Example 163, 1-methyl-4-{4-[(5-methyl-3-{5-[4-(trifluoromethoxy)phenyl]-1,2-oxazol-3-yl}-1H-1,2,4-triazol-1-yl)methyl]pyridin-2-yl}piperazine] yielded an IC50 [2] of less than 0.1 µM.
